Consider three compounds from paper PMC4854315, “Discovery of a novel allosteric inhibitor-binding site in ERK5: comparison with the canonical kinase hinge ATP-binding site” (Acta Crystallographica. Section D, Structural Biology, 2016).

Assay in all cases: Z'-LYTE kinase panel
What all share (assay type): biochemical

The target of one experiment is T1, CAMK4 (CaMKIV) (Homo sapiens, UniProt Q16566).
T1 construct: purchased ThermoFisher (SelectScreen, Z'-LYTE)
The procedure:
(§1) Compounds 2, 3 and 5 were tested for activity against the 225 kinases in the ThermoFisher standard kinase panel. The standard Z′-LYTE assay protocol (ThermoFisher) was used to measure the percentage inhibition at 10 µM compound concentration (details are provided in the supporting information).

In a further experiment the target is T2, EPHB3 (Homo sapiens, UniProt P54753).
T2 construct: purchased ThermoFisher (SelectScreen, Z'-LYTE)
T2 sequence (P54753 34-998): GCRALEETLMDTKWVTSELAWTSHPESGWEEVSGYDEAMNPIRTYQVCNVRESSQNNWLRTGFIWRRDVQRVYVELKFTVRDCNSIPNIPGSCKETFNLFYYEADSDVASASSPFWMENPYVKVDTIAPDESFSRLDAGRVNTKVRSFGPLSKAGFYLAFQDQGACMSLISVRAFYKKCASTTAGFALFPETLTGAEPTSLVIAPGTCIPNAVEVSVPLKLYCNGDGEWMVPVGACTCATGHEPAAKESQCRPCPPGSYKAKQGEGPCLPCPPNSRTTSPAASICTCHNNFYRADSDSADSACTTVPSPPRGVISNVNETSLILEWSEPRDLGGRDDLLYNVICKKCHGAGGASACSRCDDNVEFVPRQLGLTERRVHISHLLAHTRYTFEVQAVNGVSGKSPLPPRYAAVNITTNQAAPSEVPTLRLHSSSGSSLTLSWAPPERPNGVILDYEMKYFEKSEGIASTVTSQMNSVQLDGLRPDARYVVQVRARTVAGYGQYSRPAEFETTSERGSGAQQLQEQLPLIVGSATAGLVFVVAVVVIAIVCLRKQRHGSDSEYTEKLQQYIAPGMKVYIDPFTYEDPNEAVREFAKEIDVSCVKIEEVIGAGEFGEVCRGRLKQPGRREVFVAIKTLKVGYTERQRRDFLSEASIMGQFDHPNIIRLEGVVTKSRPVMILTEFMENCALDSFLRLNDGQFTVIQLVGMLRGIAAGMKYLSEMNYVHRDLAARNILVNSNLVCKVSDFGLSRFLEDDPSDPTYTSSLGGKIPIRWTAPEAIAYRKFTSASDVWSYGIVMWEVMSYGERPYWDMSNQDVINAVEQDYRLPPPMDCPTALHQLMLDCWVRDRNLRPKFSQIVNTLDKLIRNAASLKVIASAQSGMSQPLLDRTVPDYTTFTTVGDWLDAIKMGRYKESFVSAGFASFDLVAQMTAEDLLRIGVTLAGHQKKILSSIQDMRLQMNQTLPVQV
The procedure: as §1

The target of another experiment is T3, KDR (VEGFR2) (Homo sapiens, UniProt P35968).
T3 construct: purchased ThermoFisher (SelectScreen, Z'-LYTE)
T3 sequence (P35968 20-1356): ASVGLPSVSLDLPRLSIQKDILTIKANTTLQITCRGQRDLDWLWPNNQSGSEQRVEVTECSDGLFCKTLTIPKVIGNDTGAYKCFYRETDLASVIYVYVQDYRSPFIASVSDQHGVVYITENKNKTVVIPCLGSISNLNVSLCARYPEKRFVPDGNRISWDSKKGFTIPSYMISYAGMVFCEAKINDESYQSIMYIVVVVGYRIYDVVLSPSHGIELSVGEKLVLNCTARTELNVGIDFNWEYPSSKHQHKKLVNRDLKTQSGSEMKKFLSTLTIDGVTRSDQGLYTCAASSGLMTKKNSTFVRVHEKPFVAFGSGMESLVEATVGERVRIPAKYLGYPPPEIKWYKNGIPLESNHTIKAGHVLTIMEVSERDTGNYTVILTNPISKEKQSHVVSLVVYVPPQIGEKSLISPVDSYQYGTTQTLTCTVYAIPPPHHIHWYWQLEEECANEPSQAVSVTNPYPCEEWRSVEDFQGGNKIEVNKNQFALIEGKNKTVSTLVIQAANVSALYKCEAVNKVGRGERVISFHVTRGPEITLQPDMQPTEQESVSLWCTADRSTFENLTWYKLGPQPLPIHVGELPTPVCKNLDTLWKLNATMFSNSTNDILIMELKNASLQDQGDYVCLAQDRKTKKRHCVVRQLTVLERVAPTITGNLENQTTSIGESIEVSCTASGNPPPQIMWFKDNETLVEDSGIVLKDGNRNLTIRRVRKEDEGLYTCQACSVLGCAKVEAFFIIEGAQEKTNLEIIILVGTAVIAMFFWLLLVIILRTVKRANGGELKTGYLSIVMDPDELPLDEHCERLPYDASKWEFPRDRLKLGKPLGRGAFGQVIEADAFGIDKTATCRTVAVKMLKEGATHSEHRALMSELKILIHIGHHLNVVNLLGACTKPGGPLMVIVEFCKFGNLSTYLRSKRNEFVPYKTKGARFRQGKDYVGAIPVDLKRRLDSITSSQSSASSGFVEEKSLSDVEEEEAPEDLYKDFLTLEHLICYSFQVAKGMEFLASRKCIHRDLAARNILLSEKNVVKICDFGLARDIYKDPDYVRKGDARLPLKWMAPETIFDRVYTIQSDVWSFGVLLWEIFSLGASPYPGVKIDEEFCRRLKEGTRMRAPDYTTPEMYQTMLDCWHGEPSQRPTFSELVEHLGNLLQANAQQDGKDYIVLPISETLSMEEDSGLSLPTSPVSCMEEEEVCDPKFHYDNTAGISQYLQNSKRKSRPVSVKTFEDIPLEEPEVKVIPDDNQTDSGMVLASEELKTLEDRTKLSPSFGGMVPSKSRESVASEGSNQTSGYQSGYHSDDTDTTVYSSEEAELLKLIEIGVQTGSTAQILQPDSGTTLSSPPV
The procedure:
as §1

In the next experiment the target is T4, MAPK12 (p38 gamma) (Homo sapiens, UniProt P53778).
T4 construct: purchased ThermoFisher (SelectScreen, Z'-LYTE)
T4 sequence (P53778 1-367): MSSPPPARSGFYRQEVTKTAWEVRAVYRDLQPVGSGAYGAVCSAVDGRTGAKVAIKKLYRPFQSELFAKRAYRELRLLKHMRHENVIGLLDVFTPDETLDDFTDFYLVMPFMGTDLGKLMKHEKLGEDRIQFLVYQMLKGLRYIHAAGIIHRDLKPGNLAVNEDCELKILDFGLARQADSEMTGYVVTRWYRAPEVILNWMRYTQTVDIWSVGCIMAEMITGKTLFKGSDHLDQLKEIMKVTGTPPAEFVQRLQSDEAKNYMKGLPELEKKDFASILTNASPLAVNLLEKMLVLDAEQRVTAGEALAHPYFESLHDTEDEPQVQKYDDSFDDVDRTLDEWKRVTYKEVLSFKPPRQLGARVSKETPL
The procedure: as §1

The target of another experiment is T5, RPS6KB1 (p70S6K) (Homo sapiens, UniProt P23443).
T5 construct: purchased ThermoFisher (SelectScreen, Z'-LYTE)
T5 sequence (P23443 whole entry): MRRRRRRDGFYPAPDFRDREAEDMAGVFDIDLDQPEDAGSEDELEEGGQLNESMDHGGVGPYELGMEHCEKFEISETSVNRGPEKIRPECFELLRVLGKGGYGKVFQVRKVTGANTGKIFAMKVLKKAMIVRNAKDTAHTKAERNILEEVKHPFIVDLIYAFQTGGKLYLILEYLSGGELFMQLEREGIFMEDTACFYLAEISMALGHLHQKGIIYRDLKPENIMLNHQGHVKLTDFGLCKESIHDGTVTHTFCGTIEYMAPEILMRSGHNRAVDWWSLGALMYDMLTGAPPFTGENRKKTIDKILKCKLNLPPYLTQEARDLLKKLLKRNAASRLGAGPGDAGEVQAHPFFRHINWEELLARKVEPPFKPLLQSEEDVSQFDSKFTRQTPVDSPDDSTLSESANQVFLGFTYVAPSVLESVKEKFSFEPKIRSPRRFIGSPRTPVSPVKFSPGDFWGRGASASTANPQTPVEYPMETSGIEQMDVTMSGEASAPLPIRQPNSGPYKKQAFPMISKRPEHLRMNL
The procedure: as §1

In a further experiment the target is T6, TAOK2 (TAO1) (Homo sapiens, UniProt Q9UL54).
T6 construct: purchased ThermoFisher (SelectScreen, Z'-LYTE)
T6 sequence (Q9UL54 1-1235): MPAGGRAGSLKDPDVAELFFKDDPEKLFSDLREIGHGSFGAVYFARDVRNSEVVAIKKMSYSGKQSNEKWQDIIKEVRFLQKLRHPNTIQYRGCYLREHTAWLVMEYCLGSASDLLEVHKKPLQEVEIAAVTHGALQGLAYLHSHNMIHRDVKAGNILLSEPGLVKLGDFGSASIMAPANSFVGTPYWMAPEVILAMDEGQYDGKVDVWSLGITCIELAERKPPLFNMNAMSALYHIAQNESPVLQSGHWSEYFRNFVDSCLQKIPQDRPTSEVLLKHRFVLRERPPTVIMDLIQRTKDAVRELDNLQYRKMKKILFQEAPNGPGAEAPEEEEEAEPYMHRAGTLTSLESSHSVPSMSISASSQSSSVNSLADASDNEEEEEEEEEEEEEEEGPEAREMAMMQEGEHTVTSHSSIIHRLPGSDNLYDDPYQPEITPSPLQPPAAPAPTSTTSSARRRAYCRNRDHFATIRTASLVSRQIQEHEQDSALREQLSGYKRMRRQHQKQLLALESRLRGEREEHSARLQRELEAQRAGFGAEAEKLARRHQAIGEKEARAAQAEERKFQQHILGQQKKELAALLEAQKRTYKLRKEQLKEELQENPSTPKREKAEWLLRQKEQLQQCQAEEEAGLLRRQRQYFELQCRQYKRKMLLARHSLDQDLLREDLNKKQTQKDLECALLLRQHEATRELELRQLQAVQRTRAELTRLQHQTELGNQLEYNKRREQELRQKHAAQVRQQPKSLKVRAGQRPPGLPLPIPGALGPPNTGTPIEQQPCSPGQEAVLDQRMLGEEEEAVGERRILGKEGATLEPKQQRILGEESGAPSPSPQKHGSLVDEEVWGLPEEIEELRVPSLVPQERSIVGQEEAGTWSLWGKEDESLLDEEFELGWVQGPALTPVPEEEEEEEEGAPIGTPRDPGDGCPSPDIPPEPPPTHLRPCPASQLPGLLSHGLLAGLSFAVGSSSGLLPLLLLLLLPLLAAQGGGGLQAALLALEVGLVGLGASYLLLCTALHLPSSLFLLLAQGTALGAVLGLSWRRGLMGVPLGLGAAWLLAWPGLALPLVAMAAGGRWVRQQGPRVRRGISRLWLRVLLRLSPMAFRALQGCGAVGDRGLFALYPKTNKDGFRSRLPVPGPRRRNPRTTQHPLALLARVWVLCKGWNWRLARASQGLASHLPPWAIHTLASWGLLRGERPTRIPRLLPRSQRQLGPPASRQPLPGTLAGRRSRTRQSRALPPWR
The procedure:
as §1

As to `Cc1ncc(-c2nc(Nc3ccc(C(=O)NCCN4CCCCC4)cc3)ncc2F)n1C(C)C` [Compound 3], the inhibition at 10 µM is 8% against CAMK4 (CaMKIV); 51% against EPHB3; 100% against KDR (VEGFR2); 46% on MAPK12 (p38 gamma); 87% at RPS6KB1 (p70S6K); 97% against TAOK2 (TAO1).

With `Cc1cc(Nc2nc(N)nn2C(=O)NC(C)C)ccc1Cl` [Compound 5], the inhibition at 10 µM against CAMK4 (CaMKIV) was -10%; on EPHB3, 0.2%; against KDR (VEGFR2), 59%; on MAPK12 (p38 gamma), 1.08%; against RPS6KB1 (p70S6K), 7%; against TAOK2 (TAO1) it was 21%.

As to “XMD8-92 [Compound 2, reference compound]”, at CAMK4 (CaMKIV) (10 µM compound, ATP Km app), the “CAMK4 (CaMKIV) % Inhibition” value stood at 3%. Further, at EPHB3 (10 µM compound, ATP Km app), the “EPHB3 % Inhibition” value was 22%. Moreover, on KDR (VEGFR2) (10 µM compound, ATP Km app), the “KDR (VEGFR2) % Inhibition” value came to 81%. Further, on MAPK12 (p38 gamma) (10 µM compound, ATP Km app), the “MAPK12 (p38 gamma) % Inhibition” value was 3.54%. Moreover, the “RPS6KB1 (p70S6K) % Inhibition” value at RPS6KB1 (p70S6K) (10 µM compound, ATP Km app) was 5%. Also, the “TAOK2 (TAO1) % Inhibition” value at TAOK2 (TAO1) (10 µM compound, ATP Km app) came to 39%.

Broadly, the inhibition is the drop in the measured response relative to a control, in per cent.
